In paper PMC5048659 (Arthritis Research & Therapy, 2016):

Target: T1, OAT1 (Homo sapiens, UniProt Q4U2R8)
T1 construct: host or cells: HEK-293T, transient transfection
T1 sequence (Q4U2R8 1-563): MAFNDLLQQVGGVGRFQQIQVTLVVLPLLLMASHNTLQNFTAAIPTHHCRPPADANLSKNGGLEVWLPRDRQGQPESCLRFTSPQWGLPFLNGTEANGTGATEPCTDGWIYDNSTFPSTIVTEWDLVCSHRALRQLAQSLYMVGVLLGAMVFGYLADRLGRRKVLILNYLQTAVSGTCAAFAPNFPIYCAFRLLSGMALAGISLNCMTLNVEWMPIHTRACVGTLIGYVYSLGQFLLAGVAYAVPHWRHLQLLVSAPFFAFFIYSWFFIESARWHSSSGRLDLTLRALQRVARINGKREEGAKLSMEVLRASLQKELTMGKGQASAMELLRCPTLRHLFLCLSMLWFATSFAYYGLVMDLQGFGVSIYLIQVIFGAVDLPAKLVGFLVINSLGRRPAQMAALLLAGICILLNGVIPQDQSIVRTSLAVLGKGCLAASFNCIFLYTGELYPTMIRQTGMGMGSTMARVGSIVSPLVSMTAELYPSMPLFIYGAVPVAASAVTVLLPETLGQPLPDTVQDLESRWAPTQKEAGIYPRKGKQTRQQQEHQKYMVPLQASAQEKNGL
Experiment: OAT1 6-carboxyfluorescein transport in transfected HEK-293T cells
Format: cell-based
Details: 5 μM 6-carboxyfluorescein, 2 min; mean ± SEM; read-out: Potency (IC50) against OAT1
Method: The cells were washed three times in a buffer containing 125 mM NaCl and 25 mM HEPES, pH 7.3, and then lysed in 1 M sodium hydroxide prior to fluorescence measurement.

How did the IC50 turn out when `O=C(O)CSc1nnc(Br)n1-c1ccc(C2CC2)c2ccccc12` [Lesinurad, 2-((5-bromo-4-(4-cyclopropylnaphthalen-1-yl)-4H-1,2,4-triazol-3-yl)thio) acetic acid] was run?
Its IC50 is 3.9 ± 0.94 µM.
